Measured values published in patent US20160212993A1, “ADJUVANT COMPOSITIONS” (SYNGENTA LIMITED, priority 2012, published 2016).

Tests used:
Assay type in all cases: in vivo
[1] = tested on: Mycosphaerella graminicola (Septoria tritici); assay: Mycosphaerella graminicola (Septoria tritici) / wheat / preventative, SEPTTRZ/ff-pr; conditions: Table 3, adjuvant alone, 0.20%, average of three replicates
Method: (§1) In general, active ingredient is formulated (SC, SL) and just before spraying the formulations are mixed with water and ultrasonically agitated in order to achieve homogeneous distribution. Spray solutions are made up in water. Adjuvants are added as tank mix to the spray solution just before application. Foliar application is at 200 L/ha in an application device spraying with a single nozzle (type Lechler) 60 cm above the plants. Preventative tests are performed as 1 or 2 day preventative applications, i.e. plants are treated with the compounds 1 or 2 days prior to artificial inoculation with fungal spores, whereas for curative tests the inoculation is carried out prior to application. A single evaluation of disease level is made 5 to 48 days after inoculation, depending on the pathosystem. Disease control relative to the untreated check plants is then calculated. In the following examples, all treatments were sprayed at […] spray volume in 10% isopropanol solution to normalise foliar retention: Azoxystrobin;—Quadris SC250, Isopyrazam;—SC250, Cyproconazole: —Alto SL100, Chlorothalonil; Bravo SC720
Mycosphaerella graminicola (Septoria tritici)/Wheat/Preventative (Septoria tritici Leaf Spot on Wheat)->SEPTTRZ/ff-pr-S:
2-week old wheat plants cv. Riband are sprayed in a spray chamber with the formulated test compound diluted in water. The test plants are inoculated by spraying a spore suspension on them one day after application. After an incubation period of 1 day at 22° C./21° C. (day/night) and 95% rh, the inoculated test plants are kept at 22° C./21° C. (day/night) and 70% rh in a greenhouse. Percentage leaf area covered by disease was assessed and efficacy was calculated compare to untreated controls when an appropriate level of disease appears on untreated check plants (16-19 days after application).

Alternaria solani = Alternaria solani / tomato / preventative, ALTELYP/ff-pr; conditions: Table 4, adjuvant alone, 0.20%, average of three replicates
Method: as §1
Alternaria solani/Tomato/Preventative (Alternaria on Tomato)->ALTELYP/ff-pr-S:
4-week old tomato plants cv. Roter Gnom are sprayed in a spray chamber with the formulated test compound diluted in water. The test plants are inoculated by spraying them with a spore suspension two days after application. The inoculated test plants are incubated at 22/18° C. (day/night) and 95% rh in a greenhouse and the percentage leaf area covered by disease is assessed when an appropriate level of disease appears on untreated check plants (5-7 days after application).

[2] = tested on: Puccinia recondita f. Sp. Tritici; assay: Puccinia recondita f. sp. tritici / wheat / curative (brown rust on wheat), PUCCTRZ/ff-cu; design: key: % disease control relative to untreated check plants; conditions: 0.20%, average of three replicates
Method: as §1
Puccinia recondita f. Sp. Tritici/Wheat/Curative (Brown Rust on Wheat)->PUCCTRZ/ff-cu-S:
2-week old wheat plants cv. Arina are inoculated by spraying them with a spore suspension two days before application. After an incubation period of 1 day at 20° C. and 95% rh followed by 1 day at 20° C. and 60% rh in a greenhouse, the inoculated test plants are sprayed in a spray chamber with the formulated test compound diluted in water. After additional incubation at 20° C./18° C. (day/night) and 60% rh in a greenhouse, the percentage leaf area covered by disease is assessed when an appropriate level of disease appears on untreated check plants (9-12 days after application).

[3] = tested on: Puccinia recondita f. Sp. Tritici; assay: Puccinia recondita f. sp. tritici / wheat / preventative (brown rust on wheat), PUCCTRZ/ff-pr; design: key: % disease control relative to untreated check; conditions: 0.20%, average of three replicates
Method: as §1
Puccinia recondita f. Sp. Tritici/Wheat/Preventative (Brown Rust on Wheat)->PUCCTRZ/ff-pr-S:
2-week old wheat plants cv. Arina are sprayed in a spray chamber with the formulated test compound diluted in water. The test plants are inoculated by spraying them with a spore suspension one day after application. After an incubation period of 1 day at 20° C. and 95% rh, the inoculated test plants are kept at 20° C./18° C. (day/night) and 60% rh in a greenhouse. The percentage leaf area covered by disease is assessed when an appropriate level of disease appears on untreated check plants (12-14 days after application).

Row | Molecule | SEPTTRZ/ff-pr, visual assessment of control [1] | ALTELYP/ff-pr, visual assessment of control (Alternaria solani) | PUCCTRZ/ff-cu, visual assessment of control ([2]; Table 1, adjuvant alone) | PUCCTRZ/ff-cu, visual assessment of control ([2]; Table 2, adjuvant alone) | PUCCTRZ/ff-pr, visual assessment of control ([3]; Table 1, adjuvant alone) | PUCCTRZ/ff-pr, visual assessment of control ([3]; Table 2, adjuvant alone) | PUCCTRZ/ff-pr, visual assessment of control ([3]; Table 3, adjuvant alone) | PUCCTRZ/ff-pr, visual assessment of control ([3]; Table 4, adjuvant alone)
1 | CCCCCCCC/C=C\CCCCCCCC(=O)OC [Methyl oleate, reference compound] | 0 | 0 | 0 | 0 | 0 | 0 | 0 | 0
2 | Nopol-5PO-7EO [Nopol-5PO-7EO (Rhodoclean EFC)] | 0 | 6 | 0 | 0 | 0 | 0 | 0 | 0
3 | Nopol-5PO-9EO [Nopol-5PO-9EO (Rhodoclean MSC)] | 15 | 0 | 0 | 0 | 0 | 0 | 0 | 0
4 | Nopol-5PO-25EO [Nopol-5PO-25EO (Rhodoclean 525)] | 7 | 2 | 0 | 0 | 0 | 0 | 0 | 0
